# From patent US8648066B2 (Exelixis, Inc., priority 2009, dated 2014)
# Biological target: mTOR/GbL/Raptor (mTORC1) (Homo sapiens, UniProt P42345)
# Assay: mTOR/GbL/Raptor (mTORC1) ELISA assay
# Format: biochemical
# Conditions: phosphorylation of 4E-BP1; 0.2 nM mTORC1, 10 μM ATP; read-out: IC50 in this assay (mTORC1 ELISA)
# Outline: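 ELISA read-out: phospho-4E-BP1 captured on Ni-chelate plates and detected with anti-phospho antibody plus HRP-anti-IgG luminescence. The kinase step ran 120 min at ambient temperature with 0.2 nM human mTORC1, 10 µM ATP, 50 nM His-4E-BP1, 10 mM MnCl2, pH 7.2 HEPES.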
row,SMILES,IC50
1,"CC1(C)CCc2nc(CO)nc(N3CCOc4ccc(-c5cnc6sc(N)nc6c5)cc4C3)c2C1 [Example 308, {4-[7-(2-amino[1,3]thiazolo[5,4-b]pyridin-6-yl)-2,3-dihydro-1,4-benzoxazepin-4(5H)-yl]-6,6-dimethyl-5,6,7,8-tetrahydroquinazolin-2-yl}methanol]",≤ 10 nM
2,"Cc1nc2ncc(-c3ccc4c(c3)CN(c3ncnc(C)c3C)CCO4)cc2[nH]1 [Example 257, 4-(5,6-dimethylpyrimidin-4-yl)-7-(2-methyl-1H-imidazo[4,5-b]pyridin-6-yl)-2,3,4,5-tetrahydro-1,4-benzoxazepine]",250 to 1000 nM
3,"CCc1nc2ccc(-c3ccc4c(c3)CN(c3ncnc5c3CC(C)(C)CC5)CCO4)cc2[nH]1 [Example 254, 4-(6,6-dimethyl-5,6,7,8-tetrahydroquinazolin-4-yl)-7-(2-ethyl-1H-benzimidazol-6-yl)-2,3,4,5-tetrahydro-1,4-benzoxazepine]",≤ 10 nM
4,"COc1c(O)ccc2c(N3CCOc4ccc(-c5ccc6nc(C)[nH]c6c5)cc4C3)ncnc12 [Example 164, 4-[7-(2-methyl-1H-benzimidazol-6-yl)-2,3-dihydro-1,4-benzoxazepin-4-(5H)-yl]-8-(methyloxy)quinazolin-7-ol]",250 to 1000 nM
5,"CN(C)Cc1nc2c(c(N3CCOc4ccc(-c5cnc6nc(C7CC7)[nH]c6c5)cc4C3)n1)CC(C)(C)CC2 [Example 339, 1-{4-[7-(2-cyclopropyl-1H-imidazo[4,5-b]pyridin-6-yl)-2,3-dihydro-1,4-benzoxazepin-4(5H)-yl]-6,6-dimethyl-5,6,7,8-tetrahydroquinazolin-2-yl}-N,N-dimethylmethanamine]",≤ 10 nM
6,"Cc1nc2ccc(-c3ccc4c(c3)CN(c3ncnc5c(C#N)c6n(c35)CCCC6)CCO4)cc2[nH]1 [Example 51, 4-[7-(2-methyl-1H-benzimidazol-6-yl)-2,3-dihydro-1,4-benzoxazepin-4(5H)-yl]-6,7,8,9-tetrahydropyrimido[4,5-b]indolizine-10-carbonitrile]",250 to 1000 nM
7,"COc1ccc(-c2ccc3c(c2)CN(c2nc(CN(C)C)nc4c2CC(C)(C)CC4)CCO3)cc1Cl [Example 324, 1-(4-{7-[3-chloro-4-(methyloxy)phenyl]-2,3-dihydro-1,4-benzoxazepin-4(5H)-yl}-6,6-dimethyl-5,6,7,8-tetrahydroquinazolin-2-yl)-N,N-dimethylmethanamine]",250 to 1000 nM
8,"CCNc1nc2ccc(-c3ccc4c(c3)CN(c3ncnc5cc(OC)c(OC)cc35)CCO4)cc2[nH]1 [Example 259, 6-{4-[6,7-bis(methyloxy)quinazolin-4-yl]-2,3,4,5-tetrahydro-1,4-benzoxazepin-7-yl}-N-ethyl-1H-benzimidazol-2-amine]",50 to 250 nM
9,"CCNc1nc2ccc(-c3ccc4c(c3)CN(c3ccnc5ccc(F)cc35)CCO4)cc2[nH]1 [Example 283, N-ethyl-6-[4-(6-fluoroquinolin-4-yl)-2,3,4,5-tetrahydro-1,4-benzoxazepin-7-yl]-1H-benzimidazol-2-amine]",50 to 250 nM
10,"CC1(C)CCc2ncnc(N3CCOc4ccc(-c5cnc6[nH]c(CF)nc6c5)cc4C3)c2C1 [Example 238, 4-(6,6-dimethyl-5,6,7,8-tetrahydroquinazolin-4-yl)-7-[2-(fluoromethyl)-3H-imidazo[4,5-b]pyridin-6-yl]-2,3,4,5-tetrahydro-1,4-benzoxazepine]",≤ 10 nM
11,"CN1CC[C@H](CNS(=O)(=O)c2cc(-c3ccc4c(c3)CN(c3ncnc5c3CC(C)(C)CC5)CCO4)cnc2N)C1 [Example 394, 2-amino-5-[4-(6,6-dimethyl-5,6,7,8-tetrahydroquinazolin-4-yl)-2,3,4,5-tetrahydro-1,4-benzoxazepin-7-yl]-N-{[(3S)-1-methylpyrrolidin-3-yl]methyl}pyridine-3-sulfonamide]",50 to 250 nM
12,"CCNc1nc2ccc(-c3ccc4c(c3)CN(c3ncnc5c3CC(C)(C)CC5)CCO4)cc2[nH]1 [Example 255, 6-[4-(6,6-dimethyl-5,6,7,8-tetrahydroquinazolin-4-yl)-2,3,4,5-tetrahydro-1,4-benzoxazepin-7-yl]-N-ethyl-1H-benzimidazol-2-amine]",≤ 10 nM
13,"Cc1nc2c(c(N3CCOc4ccc(-c5cnc(N)c(S(=O)(=O)N(C)C)c5)cc4C3)n1)CC(C)(C)CC2 [Example 417, 2-amino-N,N-dimethyl-5-[4-(2,6,6-trimethyl-5,6,7,8-tetrahydroquinazolin-4-yl)-2,3,4,5-tetrahydro-1,4-benzoxazepin-7-yl]pyridine-3-sulfonamide]",50 to 250 nM

# Further lines, results first:
row,IC50,SMILES
1,250 to 1000 nM,"COCCc1c(C)nc(CN(C)C)nc1N1CCOc2ccc(-c3ccc4nc(C)[nH]c4c3)cc2C1 [Example 664, N,N-dimethyl-1-{4-methyl-6-[7-(2-methyl-1H-benzimidazol-6-yl)-2,3-dihydro-1,4-benzoxazepin-4(5H)-yl]-5-[2-(methyloxy)ethyl]pyrimidin-2-yl}methanamine]"
2,10 to 50 nM,"Cc1nc2cc(-c3ccc4c(c3)CN(c3nc([C@H]5CCCN5)nc5c3CC(C)(C)CC5)CCO4)ccc2[nH]1 [Example 505, 4-{6,6-dimethyl-2-[(2R)-pyrrolidin-2-yl]-5,6,7,8-tetrahydroquinazolin-4-yl}-7-(2-methyl-1H-benzimidazol-5-yl)-2,3,4,5-tetrahydro-1,4-benzoxazepine]"
3,10 to 50 nM,"CC1(C)CCc2ncnc(N3CCOc4ccc(-c5cnc(N)c(S(=O)(=O)NC6CNC6)c5)cc4C3)c2C1 [Example 426, 2-amino-N-azetidin-3-yl-5-[4-(6,6-dimethyl-5,6,7,8-tetrahydroquinazolin-4-yl)-2,3,4,5-tetrahydro-1,4-benzoxazepin-7-yl]pyridine-3-sulfonamide]"
4,≤ 10 nM,"Cc1nc2ncc(-c3ccc4c(c3)CN(c3ncnc5c3CCC(C)(c3ccccc3)C5)CCO4)cc2[nH]1 (stereo not drawn) [Example 558, 7-(2-methyl-1H-imidazo[4,5-b]pyridin-6-yl)-4-(7-methyl-7-phenyl-5,6,7,8-tetrahydroquinazolin-4-yl)-2,3,4,5-tetrahydro-1,4-benzoxazepine]"
5,50 to 250 nM,"C=CCc1c(C)nc(CN(C)C)nc1N1CCOc2ccc(-c3ccc4nc(C)[nH]c4c3)cc2C1 [Example 654, N,N-dimethyl-1-{4-methyl-6-[7-(2-methyl-1H-benzimidazol-6-yl)-2,3-dihydro-1,4-benzoxazepin-4(5H)-yl]-5-prop-2-en-1-ylpyrimidin-2-yl}methanamine]"
6,10 to 50 nM,"CC1(C)CCc2ncnc(N3CCOc4ccc(-c5cnc(N)c(S(=O)(=O)N6C7CCC6CC(N)C7)c5)cc4C3)c2C1 (stereo not drawn) [Example 575, 8-({2-amino-5-[4-(6,6-dimethyl-5,6,7,8-tetrahydroquinazolin-4-yl)-2,3,4,5-tetrahydro-1,4-benzoxazepin-7-yl]pyridin-3-yl}sulfonyl)-8-azabicyclo[3.2.1]octan-3-amine]"
7,10 to 50 nM,"CCS(=O)(=O)c1cc(-c2ccc3c(c2)CN(c2ncnc4c2CC(C)(C)CC4)CCO3)cnc1N [Example 510, 5-[4-(6,6-dimethyl-5,6,7,8-tetrahydroquinazolin-4-yl)-2,3,4,5-tetrahydro-1,4-benzoxazepin-7-yl]-3-(ethylsulfonyl)pyridin-2-amine]"
8,10 to 50 nM,"CC[C@H]1CCc2c(ncnc2N2CCOc3ccc(-c4cnc(N)c(S(=O)(=O)N5CCC(C)(N)C5)c4)cc3C2)C1 (stereo partly drawn) [Example 442, 3-[(3-amino-3-methylpyrrolidin-1-yl)sulfonyl]-5-{4-[(7S)-7-ethyl-5,6,7,8-tetrahydroquinazolin-4-yl]-2,3,4,5-tetrahydro-1,4-benzoxazepin-7-yl}pyridin-2-amine]"
9,250 to 1000 nM,"COCCOc1cc(-c2ccc3c(c2)CN(c2nc(CN(C)C)nc4c2CC(C)(C)CC4)CCO3)ccc1OC [Example 648, 1-(6,6-dimethyl-4-{7-[4-(methyloxy)-3-{[2-(methyloxy)ethyl]oxy}phenyl]-2,3-dihydro-1,4-benzoxazepin-4(5H)-yl}-5,6,7,8-tetrahydroquinazolin-2-yl)-N,N-dimethylmethanamine]"
10,50 to 250 nM,"CC1(C)CCc2ncnc(N3CCOc4ccc(-c5cnc(O)c(S(=O)(=O)N6CC[C@H](N)C6)c5)cc4C3)c2C1 [Example 453, 3-{[(3S)-3-aminopyrrolidin-1-yl]sulfonyl}-5-[4-(6,6-dimethyl-5,6,7,8-tetrahydroquinazolin-4-yl)-2,3,4,5-tetrahydro-1,4-benzoxazepin-7-yl]pyridin-2-ol]"
11,250 to 1000 nM,"CCNc1nc2ccc(-c3ccc4c(c3)CN(c3ncnc(Nc5ccc(OC)cc5)c3C)CCO4)cc2[nH]1 [Example 640, N-ethyl-6-[4-(5-methyl-6-{[4-(methyloxy)phenyl]amino}pyrimidin-4-yl)-2,3,4,5-tetrahydro-1,4-benzoxazepin-7-yl]-1H-benzimidazol-2-amine]"
12,10 to 50 nM,"Cc1nc(CN(C)C)nc(N2CCOc3ccc(-c4cnc5sc(N)nc5c4)cc3C2)c1C(C)C [Example 674, 6-(4-{2-[(dimethylamino)methyl]-6-methyl-5-(1-methylethyl)pyrimidin-4-yl}-2,3,4,5-tetrahydro-1,4-benzoxazepin-7-yl)[1,3]thiazolo[5,4-b]pyridin-2-amine]"
13,≤ 10 nM,"COCCNCc1nc2c(c(N3CCOc4ccc(-c5cnc6nc(C)[nH]c6c5)cc4C3)n1)CC(C)(C)CC2 [Example 590, N-({6,6-dimethyl-4-[7-(2-methyl-1H-imidazo[4,5-b]pyridin-6-yl)-2,3-dihydro-1,4-benzoxazepin-4(5H)-yl]-5,6,7,8-tetrahydroquinazolin-2-yl}methyl)-2-(methyloxy)ethanamine]"
14,≤ 10 nM,"Cc1nc2cc(-c3ccc4c(c3)CN(c3nc(C(C)N)nc5c3CC(C)(C)CC5)CCO4)ccc2[nH]1 (stereo not drawn) [Example 668, 1-{6,6-dimethyl-4-[7-(2-methyl-1H-benzimidazol-5-yl)-2,3-dihydro-1,4-benzoxazepin-4(5H)-yl]-5,6,7,8-tetrahydroquinazolin-2-yl}ethanamine]"
